Read-outs that look alike come from different tables or passages of the source. Numbered stars: 1 amine (or outer) side, 2 acyl side, 3 side chain; on linkers, the order of the positions; unused ones are H or OH. Bridge positions count the residues as written; N and C are the ends. Square brackets hold non-standard residues; d marks the D form. Peptide text beside a SMILES is read from it. Hyp = O=C(O)[C@@H]1C[C@@H](O)CN1; 2Thi = N[C@@H](Cc1cccs1)C(=O)O; d2Thi = N[C@H](Cc1cccs1)C(=O)O; Iva = CC[C@](C)(N)C(=O)O; X1 = O=C(CCC[*:2])[*:1]
What was measured:
[1] = Gastrointestinal absorption of peptides (FAD)V, intestinal vs intravenous antidiuretic effect; settings: rat, intestinal administration via tube 10 cm distal of pylorus; antidiuretic effect AUC vs intravenous
Description: (§1) b) Gastrointestinal absorption of peptides [(FAD)V ]
(§2) Absorption of peptides administered in the intestine through a surgically introduced plastic tube (10 cm distal of pylorus) was determined by comparing the antidiuretic effect (area under curve) after intestinal administration with the antidiuretic effect after intravenous adminstration.

[2] = Intranasal absorption of peptides (FAD)in, intranasal vs intravenous antidiuretic effect; settings: rat, 30 μl in nasal cavity; antidiuretic effect AUC vs intravenous
Description: (§3) c) Intranasal absorption of peptides (FAD)in
(§4) Absorption of peptides administered in a volume of 30 μl in the nasal cavity through a PE20 cannula attached to a Hamilton syringe (introduced 10 mm without surgery), was determined by comparing the antidiuretic effect (area under curve) after intranasal administration with the antidiuretic effect after intravenous administration.

[3] = rat, in vivo
Description: as §3, §4

[4] = in vivo; cited from earlier work
rat = assay: Antidiuretic activity (ADiv), rat model, urine conductivity after intravenous challenge; type: in vivo; settings: conductivity of urine
Description: a) Antidiuretic activity (ADiv)
The antidiuretic activity of the peptides was determined in the well established rat model which is based on continuous measurement of the conductivity of the urine produced by the rat after an intravenous challenge with peptide (J. Medicinal Chem. (1978), 21, 352-356).

[5] = rat, in vivo; remark: listed apart in the source
Description: as §1, §2

(FAD)V (gastrointestinal absorption) [1] [%] | (FAD)in (intranasal absorption) [2] [%] | (FAD)in (intranasal absorption) [3] [%] | (FAD)V (gastrointestinal absorption) [5] [%] | Structure (SMILES) | decrease of bioavailability by intranasal route [4] | ADiv (antidiuretic activity) (rat) [IU/μmol]
1.3 | 42 |  |  | CC[C@]1(C)NC(=O)[C@H](Cc2cccs2)NC(=O)[C@@H](Cc2ccccc2)NC(=O)CCCSC[C@@H](C(=O)N2C[C@H](O)C[C@H]2C(=O)N[C@H](CCCNC(=N)N)C(=O)NCC(N)=O)NC(=O)[C@H](CC(N)=O)NC1=O [Ex. 1] ([dF][2Thi][Iva]NC[Hyp][dR]G-NH2; linker N-5 via X1) |  | 
1.2 | 20 |  |  | CC(C)[C@@H]1NC(=O)[C@H](Cc2cccs2)NC(=O)[C@@H](Cc2ccccc2)NC(=O)CCCSC[C@@H](C(=O)N2C[C@H](O)C[C@H]2C(=O)N[C@H](CCCNC(=N)N)C(=O)NCC(N)=O)NC(=O)[C@H](CC(N)=O)NC1=O [Ex. 2] ([dF][2Thi]VNC[Hyp][dR]G-NH2; linker N-5 via X1) |  | 
0.4 | 5 |  |  | CC(C)[C@@H]1NC(=O)[C@H](Cc2ccccc2)NC(=O)[C@@H](Cc2ccc(O)cc2)NC(=O)CCCSC[C@@H](C(=O)N2CCC[C@H]2C(=O)N[C@H](CCCNC(=N)N)C(=O)NCC(N)=O)NC(=O)[C@H](CC(N)=O)NC1=O [Ex. 3, reference compound] ([dY]FVNCP[dR]G-NH2; linker N-5 via X1) |  | 
1.6 | 22 |  |  | CSCC[C@@H]1NC(=O)[C@@H](Cc2cccs2)NC(=O)CCCSC[C@@H](C(=O)N2C[C@H](O)C[C@H]2C(=O)N[C@H](CCCNC(=N)N)C(=O)NCC(N)=O)NC(=O)[C@H](CC(N)=O)NC(=O)[C@H](C(C)C)NC1=O [Ex. 6] ([d2Thi]MVNC[Hyp][dR]G-NH2; linker N-5 via X1) |  | 
 |  | 8 | 0.09 | NC(=O)CC[C@@H]1NC(=O)[C@H](Cc2ccccc2)NC(=O)[C@H](Cc2ccc(O)cc2)NC(=O)CCSSC[C@@H](C(=O)N2CCC[C@H]2C(=O)N[C@H](CCCN=C(N)N)C(=O)NCC(N)=O)NC(=O)[C@H](CC(N)=O)NC1=O [DDAVP, 1-desamino-8-D-arginine vasopressin] | about 10 times | 1100
2.5 | 22 |  |  | CC[C@]1(C)NC(=O)[C@H](Cc2cccs2)NC(=O)[C@@H](Cc2cccs2)NC(=O)CCCSC[C@@H](C(=O)N2C[C@H](O)C[C@H]2C(=O)N[C@H](CCCNC(=N)N)C(=O)NCC(N)=O)NC(=O)[C@H](CC(N)=O)NC1=O [Ex. 4] ([d2Thi][2Thi][Iva]NC[Hyp][dR]G-NH2; linker N-5 via X1) |  | 
1.4 | 17 |  |  | CC[C@]1(C)NC(=O)[C@H](Cc2cccs2)NC(=O)[C@@H](Cc2ccc(O)cc2)NC(=O)CCCSC[C@@H](C(=O)N2C[C@H](O)C[C@H]2C(=O)N[C@H](CCCNC(=N)N)C(=O)NCC(N)=O)NC(=O)[C@H](CC(N)=O)NC1=O [Ex. 5] ([dY][2Thi][Iva]NC[Hyp][dR]G-NH2; linker N-5 via X1) |  | 

From patent publication US5698516A, “Biologically active vasopressin analogues” (Ferring B.V., priority 1993, dated 1997)
